Experimental data reported in patent publication US11566007B2, “Ras inhibitors” (Revolution Medicines, Inc., priority 2019, dated 2023).
Read-outs that look alike come from different tables or passages of the source.

Key:
KRAS G12V = KRAS G12V (Homo sapiens (Human), UniProt P01116+P62937, G12V); assay: Ras-Raf (BRAF RBD) disruption / FRET / MOA assay, KRAS G12V; format: biochemical; conditions: read-out: IC50* KRAS G12V FRET data
Method in brief: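 A 10-point, 3-fold dilution series topping at 30 μM final was incubated 3 h at 25° C with the Ras/cyclophilin A/BRAF RBD mixture.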

NRAS Q61K = NRAS Q61K (Homo sapiens (Human), UniProt P01111+P62937, Q61K); assay: Ras-Raf (BRAF RBD) disruption / FRET / MOA assay, NRAS Q61K; format: biochemical; conditions: NRAS Q61K; Ras-Raf disruption/FRET/MOA assay; read-out: IC50* NRAS Q61K FRET data
Method in brief: (§1)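 Compounds (30 μM top final, 10-point 3-fold dilutions) incubated 3 h at 25° C with nucleotide-loaded Ras, cyclophilin A and BRAF RBD. Detection with 10 nM anti-His Eu-W1024 and 50 nM anti-GST allophycocyanin over another 1.5 h. Lowered TR-FRET ratio relative to DMSO wells gives IC50.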

[1] = tested on: NCI-H358 cells (K-Ras G12C); assay: Potency assay: pERK in NCI-H358 cells; format: cell-based, human; conditions: Homo sapiens
Method in brief: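 pERK decrease read by AlphaLISA SureFire p-ERK1/2 or In-Cell Western after 4 h compound exposure at 37 °C, 5% CO2.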

KRAS Q61H = KRAS Q61H (Homo sapiens (Human), UniProt P01116+P62937, Q61H); assay: Ras-Raf (BRAF RBD) disruption / FRET / MOA assay, KRAS Q61H; format: biochemical; conditions: Ras-Raf disruption/FRET/MOA assay; class symbols; read-out: KRAS Q61H FRET data IC50
Method in brief: as §1

NCI-H358 (K-Ras G12C) = assay: CellTiter-Glo cell viability assay, NCI-H358; format: cell-based, human; conditions: Homo sapiens, NCI-H358, 120 h, class symbols
Method in brief: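 Compounds dispensed directly onto seeded K-Ras mutant cells; plates read on day 5 after ~30 min equilibration to room temperature, by CellTiter-Glo luminescence. Signal normalized as (sample/mean DMSO)×100, then fitted to a four-parameter logistic curve.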

[2] = NCI-H358, H358 KRAS G12C, read-out: pERK EC50
[3] = NCI-H358, 5-day treatment, read-out: Additional H358 Cell Viability assay data (K-Ras G12C, IC50)

NRAS Q61K, sequence (P01111 whole entry Q61K): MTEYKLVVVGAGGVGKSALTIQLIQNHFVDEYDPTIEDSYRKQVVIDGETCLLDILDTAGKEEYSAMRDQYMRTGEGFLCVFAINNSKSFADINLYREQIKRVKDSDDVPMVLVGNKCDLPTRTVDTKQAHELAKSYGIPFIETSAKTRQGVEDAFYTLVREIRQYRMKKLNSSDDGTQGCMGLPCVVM
NRAS Q61K, sequence (P62937 whole entry): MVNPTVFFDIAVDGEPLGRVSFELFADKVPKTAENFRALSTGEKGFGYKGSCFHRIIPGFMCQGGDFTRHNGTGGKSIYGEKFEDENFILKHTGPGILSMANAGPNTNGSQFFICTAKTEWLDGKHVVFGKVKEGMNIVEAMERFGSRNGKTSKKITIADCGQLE
KRAS G12V, sequence (P01116-2 other isoform, or with tags, fused parts or gaps G12V): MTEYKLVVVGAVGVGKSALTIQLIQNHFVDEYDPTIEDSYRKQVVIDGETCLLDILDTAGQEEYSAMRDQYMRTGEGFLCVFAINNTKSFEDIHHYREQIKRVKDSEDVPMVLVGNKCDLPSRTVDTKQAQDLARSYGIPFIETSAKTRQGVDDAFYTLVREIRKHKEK
KRAS G12V, sequence (P62937 whole entry): as the sequence (P62937 whole entry) above
KRAS Q61H, sequence (P01116-2 other isoform, or with tags, fused parts or gaps Q61H): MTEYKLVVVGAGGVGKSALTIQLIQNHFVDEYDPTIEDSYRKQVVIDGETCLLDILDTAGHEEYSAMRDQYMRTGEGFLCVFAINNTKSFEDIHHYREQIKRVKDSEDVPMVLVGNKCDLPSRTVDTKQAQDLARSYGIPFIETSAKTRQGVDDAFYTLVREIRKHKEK
KRAS Q61H, sequence (P62937 whole entry): as the sequence (P62937 whole entry) above

Structure (SMILES)	IC50 (KRAS G12V)	IC50 (NRAS Q61K)	EC50 [1, 2]	IC50 (KRAS Q61H)	IC50 (NCI-H358 (K-Ras G12C); [3])	EC50 ([1]; NCI-H358, read-out: pERK EC50)	IC50 (NCI-H358 (K-Ras G12C); read-out: Additional H358 Cell Viability assay data (K-Ras G12C, IC50, uM), NCI-H358, 5-day treatment)
C=CC(=O)N1CC[C@H](C(=O)N(C)[C@H](C(=O)N[C@H]2Cc3cc(O)cc(c3)-c3ccc4c(c3)c(c(-c3cccnc3[C@@H]3CCCO3)n4CC)CC(C)(C)COC(=O)[C@@H]3CCCN(N3)C2=O)C(C)C)C1 (atropisomer, axis not shown) [Example A281]	0.1 to 1 µM	0.1 to 1 µM	< 5 µM	0.01 to 0.1 µM	0.01 to 0.1 µM		
C=CC(=O)N1CC[C@H](C(=O)N(C)[C@H](C(=O)N[C@H]2Cc3cccc(c3)-c3ccc4c(c3)c(c(-c3cccnc3[C@H](C)OC)n4CC)CC(C)(C)COC(=O)[C@@H]3CCCN(N3)C2=O)C(C)C)[C@H]1C (atropisomer, axis not shown) [Example A373]	0.1 to 1 µM	1 to 10 µM	< 5 µM	0.1 to 1 µM	0.01 to 0.1 µM		
CCn1c(-c2cccnc2[C@H](C)OC)c2c3cc(ccc31)-c1csc(n1)C[C@H](NC(=O)[C@H](C(C)C)N(C)C(=O)N1CC(N(C)C(=O)/C=C/CN(C)C)C1)C(=O)N1CCC[C@H](N1)C(=O)OCC(C)(C)C2 (atropisomer, axis not shown) [Example A710]	0.1 to 1 µM	0.01 to 0.1 µM	< 5 µM	0.01 to 0.1 µM	0.01 to 0.1 µM		
C=C(OC)C(=O)N1CC(N(C)C(=O)N(C)[C@H](C(=O)N[C@H]2Cc3nc(cs3)-c3ccc4c(c3)c(c(-c3cccnc3[C@H](C)OC)n4CC)CC(C)(C)COC(=O)[C@@H]3CCCN(N3)C2=O)C(C)C)C1 (atropisomer, axis not shown) [Example A713]	1 to 10 µM	0.1 to 1 µM	< 5 µM	0.1 to 1 µM	0.01 to 0.1 µM		
C=CS(=O)(=O)N1CCC(C(=O)N(C)[C@H](C(=O)N[C@H]2Cc3cccc(c3)-c3ccc4c(c3)c(c(-c3cncnc3)n4CC)CC(C)(C)COC(=O)[C@@H]3CCCN(N3)C2=O)C(C)C)C1 (single isomer, unassigned) [Example A171]	> 10 µM	> 10 µM	< 5 µM	> 10 µM	0.1 to 1 µM		
CC#CC(=O)N1CC2(CCN2C(=O)N(C)[C@H](C(=O)N[C@H]2Cc3nc(cs3)-c3ccc4c(c3)c(c(-c3cccnc3[C@H](C)OC)n4CC)CC(C)(C)COC(=O)[C@@H]3CCCN(N3)C2=O)C(C)C)C1 (atropisomer, axis not shown) [Example A655]	0.1 to 1 µM	0.01 to 0.1 µM	< 5 µM	0.01 to 0.1 µM	0.01 to 0.1 µM		
C=CC(=O)N1CC[C@H](C(=O)N(C)[C@H](C(=O)N[C@H]2Cc3cccc(c3)-c3ccc4c(c3)c(c(-c3cccnc3[C@H](C)OC)n4CC3COC3)CC(C)(C)COC(=O)[C@@H]3CCCN(N3)C2=O)C(C)C)C1 (atropisomer, axis not shown) [Example A481]	1 to 10 µM	1 to 10 µM	< 5 µM	1 to 10 µM	0.01 to 0.1 µM		
C=CC(=O)N1CCC[C@H]2CN(C(=O)N(C)[C@H](C(=O)N[C@H]3Cc4nc(cs4)-c4ccc5c(c4)c(c(-c4cccnc4[C@H](C)OC)n5CC)CC(C)(C)COC(=O)[C@@H]4CCCN(N4)C3=O)C(C)C)C[C@H]21 (atropisomer, axis not shown) [Example A618]	0.1 to 1 µM	0.1 to 1 µM	< 5 µM	0.1 to 1 µM	0.01 to 0.1 µM		
CCn1c(-c2cccnc2[C@H](C)OC)c2c3cc(ccc31)-c1nc(nn1C)C[C@H](NC(=O)[C@@H](COC1CN(C(=O)C#CC(C)(C)N(C)C)C1)C(C)C)C(=O)N1CCC[C@H](N1)C(=O)OCC(C)(C)C2 (atropisomer, axis not shown) [Example A720, (2R)-2-(((1-(4-(dimethylamino)-4-methylpent-2-ynoyl)azetidin-3-yl)oxy)methyl)-N-((6^3S,4S,Z)-1^1-ethyl-1^2-(2-((S)-1-methoxyethyl)pyridin-3-yl)-2^1,10,10-trimethyl-5,7-dioxo-6^1,6^2,6^3,6^4,6^5,6^6-hexahydro-1^1H,2^1H-8-oxa-1(5,3)-indola-6(1,3)-pyridazina-2(5,3)-triazolacycloundecaphane-4-yl)-3-methylbutanamide]	1 to 10 µM	1 to 10 µM	< 5 µM	1 to 10 µM	0.01 to 0.1 µM		
C=CC(=O)N1CCC[C@]12CCN(C(=O)N(C)[C@H](C(=O)N[C@H]1Cc3nc(cs3)-c3ccc4c(c3)c(c(-c3cccnc3[C@H](C)OC)n4CC)CC(C)(C)COC(=O)[C@@H]3CCCN(N3)C1=O)C(C)C)C2 (atropisomer, axis not shown) [Example A548]	0.1 to 1 µM	0.1 to 1 µM	< 5 µM	0.1 to 1 µM	0.1 to 1 µM		
C=CC(=O)N1CC[C@H](C(=O)N(C)[C@H](C(=O)N[C@H]2Cc3cc(O)cc(c3)-c3ccc4c(c3)c(c(-c3cccc(=O)n3C(C)C)n4CC)CC(C)(C)COC(=O)[C@@H]3CCCN(N3)C2=O)C(C)C)C1 [Example A151]	1 to 10 µM	1 to 10 µM	< 5 µM	1 to 10 µM	0.1 to 1 µM		
C=C(F)C(=O)N1CC(N(C)C(=O)N(C)[C@H](C(=O)N[C@H]2Cc3nc(cs3)-c3ccc4c(c3)c(c(-c3cccnc3[C@H](C)OC)n4CC)CC(C)(C)COC(=O)[C@@H]3CCCN(N3)C2=O)C(C)C)C1 (atropisomer, axis not shown) [Example A732]	1 to 10 µM	0.1 to 1 µM	< 5 µM	0.1 to 1 µM	0.01 to 0.1 µM		
CCn1c(-c2cccnc2[C@H](C)OC)c2c3cc(ccc31)-c1cccc(c1)C[C@H](NC(=O)[C@H](C(C)C)N1CC[C@]3(CCN(C(=O)C#C[C@@H]4COCCN4C)C3)C1=O)C(=O)N1CCC[C@H](N1)C(=O)OCC(C)(C)C2 (atropisomer, axis not shown) [Example A569]	> 10 µM	> 10 µM		1 to 10 µM		< 5 µM	0.01 to 0.1 µM
C=CC(=O)N1CC[C@H](C(=O)N(C)[C@H](C(=O)N[C@H]2Cc3cccc(c3)-c3ccc4c(c3)c(c(-c3cccnc3[C@H](C)OC)n4CC)CC(C)(C)COC(=O)[C@@H]3CCCN(N3)C2=O)[C@@H](C)C(F)(F)F)C1 (atropisomer, axis not shown) [Example A640]	1 to 10 µM	1 to 10 µM	< 5 µM	0.1 to 1 µM	0.01 to 0.1 µM		
C=CC(=O)N(C)CCN1CCN(C(=O)N(C)[C@H](C(=O)N[C@H]2Cc3cccc(c3)-c3ccc4c(c3)c(c(-c3cccnc3[C@H](C)OC)n4CC)CC(C)(C)COC(=O)[C@@H]3CCCN(N3)C2=O)C(C)C)C[C@@H]1C (atropisomer, axis not shown) [Example A570]	0.1 to 1 µM	0.1 to 1 µM	< 5 µM	0.1 to 1 µM	0.1 to 1 µM		
CCn1c(-c2cccnc2[C@H](C)OC)c2c3cc(ccc31)-c1csc(n1)C[C@H](NC(=O)[C@H](C(C)C)N(C)C(=O)N1CCN(C(=O)/C=C/CN(C)C)C[C@@H]1C)C(=O)N1CCC[C@H](N1)C(=O)OCC(C)(C)C2 (atropisomer, axis not shown) [Example A709]	0.1 to 1 µM	0.01 to 0.1 µM	< 5 µM	0.01 to 0.1 µM	0.01 to 0.1 µM		
CCn1c(-c2cccnc2[C@H](C)OC)c2c3cc(ccc31)-c1csc(n1)C[C@H](NC(=O)C[C@@H](C)OC1CN(C(=O)C#CC(C)(C)N(C)C)C1)C(=O)N1CCC[C@H](N1)C(=O)OCC(C)(C)C2 (atropisomer, axis not shown) [Example A638]	1 to 10 µM	1 to 10 µM	< 5 µM	1 to 10 µM	0.01 to 0.1 µM		
